Each structure is given as a SMILES string. Where “and” joins values, the source holds several entries; their conditions need not be identical. Equal values may be shown once.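 Values below derive from 48-hour exposures of cells grown in 96-well plates, with endpoints linearly interpolated between the two concentrations bracketing the appropriate inhibition level. GI50: concentration for 50% inhibition of growth. Definition used: TGI = concentration required for complete inhibition of growth.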 Bounds are passed on as bounds.

Common to all, as to assay: DTP human tumour cell line panel, 48 h
The subject of experiment [1] is CCRF-CEM leukemia.
Experiment [2] concerns MOLT-4 leukemia.
The subject of experiment [3] is EKVX NSCLC.
The subject of experiment [4] is M14 melanoma.
Experiment [5] concerns SK-MEL-5 melanoma.
Experiment [6] deals with UACC-62 melanoma.
For experiment [7], the system named is SNB-75 CNS.
In experiment [8] the test system is COLO 205 colon.
For experiment [9], the system named is DU-145 prostate.
For experiment [10], the system named is HS 578T breast.

For `CC(=O)Nc1ccc(/C=C2\N=C(c3ccccc3)OC2=O)cc1`, the TGI in [1] was over 100 µM; in [2], over 100 µM; in experiment [3], over 100 µM; in [4] it was over 100 µM; in experiment [5], over 100 µM; in [6], over 60.1 µM. The TGI in [7] and in experiment [8] was over 100 µM throughout.

Turning to `COc1cccc(C2=C(c3cn(C)c4cc(F)ccc34)C(=O)NC2=O)c1`, the GI50 is 9.63 µM in [1]; 11.1 µM in experiment [2]; over 25 µM in experiment [9]; 24.6 µM in experiment [4]; 11 µM in [5]; 14.3 µM in experiment [6]. Further, the GI50 in experiment [10] is over 24 µM; in experiment [7], 2.42 µM; in experiment [8] it was 10.9 µM. Moreover, the TGI was over 25 µM in experiment [1]; over 25 µM in experiment [2]; over 25 µM in experiment [9]; over 25 µM in experiment [4]; over 21 µM in experiment [5]; over 25 µM in [6]. Besides, the TGI in [10], in experiment [7] and in experiment [8] was over 25 µM throughout.

For `Cc1ccc(-c2nc3cc(Cl)c(Cl)cc3nc2C#N)cc1`, the GI50 in experiment [1], in experiment [2], in experiment [9], in [3], in experiment [4] and in experiment [5] was over 100 µM throughout. The GI50 in experiment [6], in [7] and in experiment [8] was over 100 µM throughout. Further, the TGI in experiment [1], in experiment [2], in experiment [9], in [3], in experiment [4] and in experiment [5] was over 100 µM throughout. In addition, the TGI in experiment [6], in experiment [7] and in experiment [8] was over 100 µM throughout.

Turning to `COc1ccc2c(c1)[n+](=O)c(C(=O)C/C(=N/NC(=O)C[N+](C)(C)C)C(=O)Nc1cccc(C)c1C)c(C)n2O`, the TGI in [3], in experiment [4], in [6], in experiment [7] and in experiment [8] was over 100 µM in each case.

`CN(C)C(=O)NC(=S)N(C)C`: the TGI in experiment [1], in experiment [2], in [3], in experiment [4], in experiment [5] and in [6] was over 100 µM throughout. This compound also registered a TGI in experiment [7] of over 100 µM.

For the compound `COC(=O)C1C(=O)O[C@@H](c2ccc(OC)c(OC)c2OC)C1C(=O)OC` (mixture of isomers), the TGI in [1], in experiment [2], in experiment [3], in [4], in [5] and in experiment [6] was over 100 µM in each case. The concentration for total growth inhibition (TGI) in experiment [7] and in experiment [8] was over 100 µM in each case.

Regarding `O=c1c2ccccc2nc(-c2ccccc2Cl)n1-c1nnc(C(F)(F)F)s1`, the GI50 in [1] was 3.13 µM; in experiment [2] it was 3.99 µM; in experiment [9] it was 5.03 µM; in [4], 4.17 µM; in experiment [5] it was 1.99 µM; in experiment [6], 2.85 µM. The GI50 in experiment [10] was 2.38 µM; in experiment [7], 3.47 µM; in experiment [8], 3.86 µM. Besides, the TGI in experiment [1] is 40.7 µM; in experiment [2], 20.4 µM; in experiment [9], over 100 µM; in [4], 23.7 µM; in experiment [5], 4.91 µM; in experiment [6], 14.4 µM. Also, the TGI was 9.3 µM in [10], over 100 µM in experiment [7] and 21.3 µM in [8].

Consider `O=C(N/C(=C\c1ccccc1Cl)c1nc2ccccc2[nH]1)c1ccccc1`, for which the TGI in [1] was over 100 µM; in experiment [2], over 100 µM; in [3], 88 µM; in experiment [4], 54.3 µM; in experiment [5] it was 34.2 µM; in [6] it was over 100 µM. Further, the TGI in [8] was over 100 µM.

As for `c1ccc(-c2n(Cc3ccc4ccccc4c3)cc[n+]2Cc2ccc3ccccc3c2)cc1`, the GI50 is 1.56 µM in experiment [1]; 1.38 µM in experiment [9]; 0.481 µM in experiment [5]; 0.447 µM in [6]; 1.61 µM in [10]; 1.16 µM in experiment [7]. Besides, the TGI in experiment [1] was 4.06 µM; in [9], 2.73 µM; in [5], 1.69 µM; in experiment [6], 1.73 µM; in experiment [10], 4.08 µM; in experiment [7] it was 2.58 µM.

Turning to `CC(=O)[CH-]C(=O)c1ccccc1.CC(=O)[CH-]C(=O)c1ccccc1.CC(C)CCC[C@H](C)C1CCC2[C@@H]3CC=C4C[C@@H]([O-])CC[C@]4(C)C3CC[C@@]21C.CC(C)CCC[C@H](C)C1CCC2[C@@H]3CC=C4C[C@@H]([O-])CC[C@]4(C)C3CC[C@@]21C.Cl.[Ti+4]` (stereo partly specified), the GI50 in experiment [1], in experiment [2], in experiment [3], in experiment [4], in [5] and in [6] was over 25 µM in each case. Besides, the GI50 was 22.1 µM in experiment [7] and over 25 µM in experiment [8]. The TGI in experiment [1], in [2], in experiment [3], in experiment [4], in [5] and in experiment [6] was over 25 µM throughout. Also, the TGI in [7] and in experiment [8] was over 25 µM throughout.

With `Cc1cc(=O)n(-c2c(C)cccc2Cl)c(/C=C(\O)c2ccncc2)n1`, the TGI in experiment [1], in [2], in experiment [3], in experiment [4], in experiment [5] and in experiment [6] was over 100 µM in each case. Moreover, the TGI in [7] and in experiment [8] was over 100 µM throughout.

On to `CC(=O)OCC1OC(OCc2ccccc2)C(Br)C(OC(C)=O)C1OC(C)=O` (stereo unspecified), for which the TGI in [1], in [2], in experiment [4], in [5], in experiment [6] and in [8] was over 100 µM throughout.

For the compound `CC1CCC(=O)C(C(O)CC2CC(=O)N(c3ccccc3)C(=O)C2)C1` (stereo unspecified), the TGI in experiment [1], in [2], in [3], in experiment [4], in [6] and in experiment [7] was over 100 µM throughout. The compound further showed a TGI in [8] of over 100 µM.

Turning to `CCN(CC)CC(=O)NC1c2ccccc2Oc2c(C)cccc21` (stereo unspecified), the TGI in experiment [1], in [2], in [3], in experiment [4], in experiment [5] and in experiment [6] was over 100 µM throughout. The TGI in [7] and in [8] was over 100 µM in each case.

For `CN(C)CCn1cnc2ncccc2c1=O`, the TGI in experiment [1], in [2], in [3], in experiment [4], in experiment [5] and in experiment [6] was over 100 µM each time. Moreover, the TGI in experiment [7] and in experiment [8] was over 100 µM throughout.

For the compound `CCOc1ccc2c(c1)CN(Cc1ccc(Cl)cc1)CO2`, the GI50 in experiment [1] is 29.9 µM; in [2], 19.3 µM; in [9], 22.8 µM; in experiment [5], 15.2 µM; in [6] it was 16.1 µM; in experiment [10], 18.2 µM. In addition, the GI50 was 15 µM in experiment [7] and 19 µM in experiment [8]. For the same compound, the TGI in experiment [1] amounted to 98.5 µM; in [2], 67.5 µM; in experiment [9], 53.2 µM; in experiment [5], 28.9 µM; in experiment [6] it was 31.2 µM; in [10] it was 53.7 µM. Moreover, the TGI in experiment [7] amounted to 45.8 µM; in experiment [8], 36.1 µM.

`CC1=C(C(=O)NCc2ccccc2)C(c2ccccc2C)C(C(=O)NCc2ccccc2)=C(C)N1`: the TGI in experiment [1] is over 100 µM; in experiment [2], over 100 µM; in [3], over 100 µM; in experiment [4], 42.8 µM; in [5], over 100 µM; in experiment [6], 38.8 µM. Further, the values for the TGI in experiment [7] and in experiment [8] were over 94.1 µM and over 100 µM, respectively.

For the compound `O=C(CO[N+](=O)[O-])OC/C=C/c1ccccc1`, the TGI in experiment [1], in experiment [2], in [3], in experiment [4], in experiment [7] and in [8] was over 100 µM each time.

Take `Clc1ccc(OCc2nnc3n2N=C(c2ccc(Br)cc2)CS3)cc1`: the TGI in experiment [1], in experiment [2] and in experiment [6] was over 100 µM each time.

`COc1ccc(S(=O)(=O)N[C@H](C(=O)O)c2ccccc2)cc1`: the TGI in experiment [1], in experiment [2], in experiment [3], in experiment [4], in [5] and in [6] was over 100 µM each time. Moreover, the TGI in experiment [7] and in experiment [8] was over 100 µM in each case.

Take `CCCCCCCCCCCCCCCCc1c(C(=O)OC)nc(NN)[nH]c1=O`: the TGI in [1], in experiment [2], in experiment [3], in experiment [4], in [5] and in experiment [6] was over 50 µM throughout. The TGI in experiment [7] and in experiment [8] was over 50 µM each time.

In the case of `COc1cc(-c2ccc(NC(=O)SCCC(=O)O)cc2OC)ccc1NC(=O)SCCC(=O)O`, the TGI in [1], in [2], in [3], in experiment [4], in [5] and in experiment [7] was over 100 µM throughout. This compound also came in with a TGI in experiment [8] of over 100 µM.

On to `COC1[C@H](NC(=O)OC(C)(C)C)C(=O)N1Cc1ccccc1` (stereo partly specified), for which the TGI in experiment [1], in [2], in experiment [3], in experiment [4], in experiment [5] and in experiment [6] was over 100 µM in each case. Further, the TGI in [7] and in experiment [8] was over 100 µM each time.

`CCCCCCCCCCSC(=O)NC`: the TGI in [1] was 48.3 µM; in [2] it was 46.5 µM; in [3] it was 71.4 µM; in experiment [4], 50 µM; in [5], 45.6 µM; in experiment [6], over 100 µM. Further, the TGI in experiment [7] and in experiment [8] was over 100 µM each time.

Regarding `CCOc1ccc(OCC)c([P+](c2ccccc2)(c2ccccc2)c2ccccc2)c1`, the total growth inhibition concentration (TGI) is 14.7 µM in experiment [1]; 16.5 µM in [3]; 12.6 µM in [4]; 1.14 µM in [5]; 14.8 µM in [6]; 10.6 µM in experiment [7]. This compound yielded a TGI in [8] of 1.31 µM.

For the compound `CCOC(=O)C(NO)C(Sc1ccccc1)c1ccc(OC)cc1` (stereo unspecified), the TGI in experiment [2], in experiment [3], in experiment [4], in experiment [5], in experiment [6] and in experiment [7] was over 100 µM throughout. For the same compound, the concentration for total growth inhibition (TGI) in experiment [8] is over 100 µM.

As for `CC(=O)OC(C)(C)/C=C/C(=O)[C@](C)(O)[C@H]1[C@H](O)C[C@@]2(C)[C@@H]3CC=C4[C@@H](C=C(O)C(=O)C4(C)C)[C@]3(C)C(=O)C[C@]12C`, the GI50 is 0.0514 µM in experiment [9] and 0.0193 µM in experiment [4]. The TGI is 0.0997 µM and 0.689 µM in experiment [9]; 0.722 µM and 1.01 µM in [4]; 1.56 µM and 0.806 µM and 1.17 µM in experiment [6]; 42.7 nM [middle of 4 runs] in experiment [7].
